Experimental data: article PMC7297122 (2020)

Experiments:
[1] = system: domain 1 crystallization RNA, 5-bromocytidine form (RNA, riboswitch, 5-bromocytidine at 3 or at 42 and 45 (which form per ligand: Table S1, not seen)) GGCUUCAACAACCCCGUAGGUUGGGCCGAAAGGCAGCGAAUCUACUGGAGCC; assay: X-ray crystallography; details: Mg2+
[2] = system: domain 1 crystallization RNA, unmodified (RNA, riboswitch) GGCUUCAACAACCCCGUAGGUUGGGCCGAAAGGCAGCGAAUCUACUGGAGCC; assay: X-ray crystallography; details: Mg2+
[3] = system: C6 2'-deoxy atomic mutant domain 1 (RNA, riboswitch, 2'-deoxy at 6) GGCUUCAACAACCCCGUAGGUUGGGCCGCAAGGCAGCGAAUCUACUGGAGCC; assay: ITC; details: 100 mM KCl, 10 mM MgCl2; 40 mM HEPES-K pH 7.0, 298 K; 1 mM ligand titrated into 100 µM RNA
[4] = system: NAD+ riboswitch domain 1, wild type (unmodified domain 1 RNA) (RNA, riboswitch) GGCUUCAACAACCCCGUAGGUUGGGCCGCAAGGCAGCGAAUCUACUGGAGCC; assay: ITC; details: 100 mM KCl, 10 mM MgCl2; 40 mM HEPES-K pH 7.0 (pH 7.2 in Figure 5 legend), 298 K
[5] = system: G47 2'-deoxy atomic mutant domain 1 (RNA, riboswitch, 2'-deoxy at 47) GGCUUCAACAACCCCGUAGGUUGGGCCGCAAGGCAGCGAAUCUACUGGAGCC; assay: ITC; details: 100 mM KCl, 10 mM MgCl2; 40 mM HEPES-K pH 7.0, 298 K; 1 mM ligand titrated into 100 µM RNA
[6] = system: C6U:G47A mutant domain 1 (RNA, riboswitch) GGCUUUAACAACCCCGUAGGUUGGGCCGCAAGGCAGCGAAUCUACUAGAGCC; assay: ITC; details: 100 mM KCl, 10 mM MgCl2; 40 mM HEPES-K pH 7.0, 298 K; 1 mM ligand titrated into 100 µM RNA

Row | binding [1] | binding [2] | Kd [4] [µM] | Structure (SMILES) | further results
1 | – | yes | 89 ± 15 | Nc1ncnc2c1ncn2[C@@H]1O[C@H](COP(=O)(O)OP(=O)(O)O)[C@@H](O)[C@H]1O | binding [3]: weak; binding [5]: weak; binding [6]: no
2 | yes | – | – | Nc1ncnc2c1ncn2[C@@H]1O[C@H](COP(=O)(O)OP(=O)(O)OP(=O)(O)O)[C@@H](O)[C@H]1O | –
3 | yes | – | 50 ± 19 | CNc1ncnc2c1ncn2[C@@H]1O[C@H](COP(=O)(O)OP(=O)(O)OP(=O)(O)O)[C@@H](O)[C@H]1O | –

More lines, now with the values behind:

Row | Structure (SMILES) | binding [1] | binding [2] | Kd [4] [µM] | further results
4 | Nc1ncnc2c1ncn2[C@@H]1O[C@H](COP(=O)(O)O)[C@@H](O)[C@H]1O | yes | – | – | –
5 | Nc1ncnc2c1ncn2[C@@H]1O[C@H](COP(=O)(O)OP(=O)(O)OP(=O)(O)O)C[C@H]1O | – | yes | – | –
6 | NC(=O)C1=CN([C@@H]2O[C@H](COP(=O)(O)OP(=O)(O)OC[C@H]3O[C@@H](n4cnc5c(N)ncnc54)[C@H](O)[C@@H]3O)[C@@H](O)[C@H]2O)C=CC1 | – | – | – | binding ([1]; only ADP moiety visible, also Mn2+ form 6TFH): yes
7 | NC(=O)c1ccc[n+]([C@@H]2O[C@H](COP(=O)(O)OP(=O)(O)OC[C@H]3O[C@@H](n4cnc5c(N)ncnc54)[C@H](O)[C@@H]3O)[C@@H](O)[C@H]2O)c1 | – | – | > 150 | binding ([1]; ADP moiety and nicotinamide ribose 5' carbon visible): yes
8 | Nc1ncnc2c1ncn2[C@@H]1O[C@H](COP(=O)(O)OS(=O)(=O)O)[C@@H](OP(=O)(O)O)[C@H]1O | – | yes | – | –
